Experiments:
MKL-2 cells (VP-MCC) = format: cell-based, human
Description: (§1) A non-targeting control (Silencer Select Negative Control No. 2 siRNA) and a positive control (AllStars Cell Death Control siRNA) were used as controls. Lipofectamine RNAiMax (Thermo Fisher Scientific, Grand Island, NY) was obtained as the transfection reagent. […] Three siRNAs per gene were arrayed in 384 well plates, one siRNA per well. […] Cell viability was measured by CellTiter-Glo assay following the manufacturer's instructions (G7572; Promega, Madison, WI, USA) 96 h after siRNA transfection. Assay plates were measured using BMG Pherastar plate reader Three different siRNAs (sequences: [NT], and [NT] targeting INCENP as well as negative non-targeting siRNA control were purchased from Thermo Fisher Scientific (Grand Island, NY).

MCC26 cells (VN-MCC) = format: cell-based, human
Description: as §1

| Substance | Percent viability (MKL-2 cells (VP-MCC)) [%] | Percent viability (MCC26 cells (VN-MCC)) [%] |
| --- | --- | --- |
| AGUCCUUUAUUAAGCGCAAtt (AGUCCUUUAUUAAGCGCAATT; chemistry not given here) | 80.2 | 103.7 |
| CAAAGGAAACCAACAAUAAtt (CAAAGGAAACCAACAAUAATT; chemistry not given here) | 80.7 | 87.6 |
| GCAGGUUCCUUAUCUGUCAtt (GCAGGUUCCUUAUCUGUCATT; chemistry not given here) | 56.1 | 85.0 |
| GCUUGUACCUCAUAUCAGAtt (GCUUGUACCUCAUAUCAGATT; chemistry not given here) | 48.4 | 90.4 |
| UAUUGUUGGUUUCCUUUGC (chemistry not given here) | 92.8 | 96.2 |
| UGAAUGUAGAGAUGCGGUG (chemistry not given here) | 74.1 | 98.4 |
